Article PMC9083324, “Identifying Acute Cardiac Hazard in Early Drug Discovery Using a Calcium Transient High-Throughput Assay in Human-Induced Pluripotent Stem Cell-Derived Cardiomyocytes” (Frontiers in Physiology, 2022)

Key:
[1] = tested on: hiPSC-CMs (iCell Cardiomyocytes^2); assay: Ca2+ transient assay (CTCM) with acute cardiac hazard scoring in hiPSC-CMs; settings: for incidence of EADs / prolongation of CTD90: 3 nM
Protocol: Cells were pre-plated and seeded in fibronectin-coated 96-well plates at a density suited to form a monolayer and maintained in culture in a stage incubator (37°C, 5% CO2) according to the instructions of the cell provider. […] The beating monolayer was taken from frozen vials iCell Cardiomyocytes^2 (≈5 million cells/vial), which were plated onto three 96-well plates (≈50K/well).
Cells from these lot numbers were from the same donor (Apparently healthy normal, age <18) (according to FUJIFILM Cellular Dynamics).
On the day of the experiment, the culture medium in the 96-well plates containing the monolayers of hiPSC-CMs was replaced with Tyrode’s solution (Sigma, No. T2397) supplemented with 10 mM HEPES together with KCl to yield isokalemic (4.2 mM K^+) conditions.
The Ca^2+-sensitive fluorescence dye Cal-520™ AM (Cat. no.21131; AAT Bioquest) was used to capture the intracellular Ca^2+ transients in hiPSC-CMs. […] Briefly, Cal-520 was incubated for 70 min followed by a wash-out with supplemented Tyrode’s solution and a 30-min recovery before starting the experiments at 37°C. […] Compounds were added automatically using the Functional Drug Screen System (FDSS/µCell; Hamamatsu, Japan) head stage by adding 100 µl of the 2-fold concentrated compound solution to wells with hiPSC-CMs already containing a volume of 100 µl of the experimental solution, reaching the final intended test concentration in 0.1% DMSO.
The spontaneous beating activity of hiPSC-CMs was assessed through measurement of the Ca^2+ fluorescence signal integrated over the whole well. Ten minutes before starting the recordings, the experimental plates were put into the FDSS system for stabilization and a baseline recording was captured for 4 min followed by compound addition. The effect of the compounds was recorded around 30 min after compound addition. The Ca^2+ transient signals were sampled every 16 ms (frame rate of 62.5 Hz) in hiPSC-CMs maintained at 37°C during the acquisition time. […] In addition, beat rate (BR = peak count/min) and amplitude (amp = difference between max. and min of every beat) were measured, and incidence of cellular arrhythmias, e.g., EAD-like activity (considered a surrogate of TdP), cessation of beating (∼ stop beating), and below beating below quantification level (caused by low amplitude of the Ca^2+ transient or by ectopic beat: BBQL) were also recorded (Figures 1B,C).
For all individual experiments, delta percent (Δ%) at 30 min with respect to the baseline value was calculated [e.g., ∆% for CTD90 = (CTD90 30 min-CTD90 0 min)/CTD90 0 min) × 100].
TIs indicate an interval where, with a certain confidence level (1- α = 0.95), a specified proportion (p = 0.90) of a sampled population falls. […] These ΔΔ% net effects were the values obtained after normalization for baseline (Δ% vs. baseline) per well and the aggregated compound-treated wells are vehicle corrected by subtraction with the aggregated Δ% of the corresponding DMSO wells from the same plate [e.g., ΔΔ% = median Δ% drug - median Δ% DMSO]. The categorization was made first for each concentration and then aggregated per compound and test site. […] Similarly, a compound was categorized as decreased if it was in a category “decreased” in at least one of the four concentrations.
The cut-off values are net changes (ΔΔ% changes vs. baseline and vehicle), which are based on the statistical tolerance intervals (TIs) (Δ% changes vs. baseline). TIs indicate an interval where, with a certain confidence level, a specified proportion of a sampled population falls.

IKr = tested on: IKr; design: method as in Liu et al., 2010; settings: ref Liu et al., 2010; cited from earlier work
IKs = tested on: IKs; design: method as in Liu et al., 2010; settings: ref Liu et al., 2010; cited from earlier work
[2] = tested on: hiPSC-CMs (iCell Cardiomyocytes); assay: Ca2+ transient assay (CTCM), lot-to-lot comparison in iCell Cardiomyocytes (non-square cells, Lot 103674); assay type: cell-based, human
Protocol: To investigate lot-to-lot variability in hiPSC-CMs, we tested 19 drugs with known clinical cardiac risk in other lots of iCell Cardiomyocytes^2. Fifty-five reference drugs were tested in iCell Cardiomyocytes^2 -Lot12012, 18 reference drugs were tested in iCell Cardiomyocytes^2 (Lot105091), and 18 reference drugs were tested in iCell Cardiomyocytes (Lot103674) (nonsquare cells).

[3] = similar among the iCell Cardiomyocytes^2 and iCell Cardiomyocytes lots
[4] = over the tested concentrations (Figure 3)
[5] = updated scoring: 10 points for decrease in beat rate by ≥ −30%
[6] = 3 nM (2-fold fCmax), n = 131 studies

O=C(Nc1ccc(Oc2ccccc2)cc1)c1cccc([N+](=O)[O-])c1 [ICA-105574]
effect on CTD90 ([1]; concentration not given): shortened

CC(C)(C)c1ccc(C(=O)CCCN2CCC(OC(c3ccccc3)c3ccccc3)CC2)cc1 [Ebastine]
hazard score [1, 3]: no hazard

CC(C)NCC(O)c1ccc(O)c(O)c1 (stereo not drawn) [Isoproterenol]
share of studies identified within the low and high hazard zones ([1]; 100 nM (63-fold fCmax), n = 143 studies): 92%

C[C@H](CS)C(=O)N1CCC[C@H]1C(=O)O [Captopril]
hazard score [1, 3]: no hazard

CC(C)(Oc1ccc(Cl)cc1)C(=O)NC1C2CC3CC1CC(NS(C)(=O)=O)(C3)C2 (stereo not drawn) [JNJ-303]
effect on hiPSC-CMs (detection in the assay) ([1]; concentration not given): not detected

O=C(c1ccc(OCCN2CCCCC2)cc1)c1c(-c2ccc(O)cc2)sc2cc(O)ccc12 [Raloxifene]
IC50 (IKr): 1.1 µM | IC50 (IKs): 4.8 µM | hazard score ([1]; at >2000 folds of fCmax): red | hazard score ([1]; at ∼700–800 folds fCmax): green

[Ba+2].[Cl-].[Cl-] [BaCl2]
effect on hiPSC-CMs (detection in the assay) ([1]; concentration not given): no effect

CCC1(c2ccccc2)C(=O)NCNC1=O [Primidone]
hazard score [1, 4]: Green

O=C1NC(=O)C(c2ccccc2)(c2ccccc2)N1 [Phenytoin]
hazard score [1, 4]: Green

CC(C)NCC(O)COc1ccc(CC(N)=O)cc1 (stereo not drawn) [Atenolol]
hazard score [1, 3]: no hazard

CC(C)(C)c1ccc(C(O)CCCN2CCC(C(O)(c3ccccc3)c3ccccc3)CC2)cc1 (stereo not drawn) [terfenadine]
cessation of beating ([1]; concentration not given): caused cessation of beating | effect on CTD90 ([1]; concentration not given): slightly shortened

O=C(O)COCCN1CCN(C(c2ccccc2)c2ccc(Cl)cc2)CC1 (stereo not drawn) [Cetirizine]
hazard score ([1]; 1 µM (16-fold the fCmax), numerous studies): no hazard

Cc1cc2c(s1)Nc1ccccc1N=C2N1CCN(C)CC1 [Olanzapine]
hazard score ([1]; highest tested concentration 100 nM (around fCmax)): not found to be with any hazard level

CC(C)NCC(O)c1ccc(NS(C)(=O)=O)cc1 (stereo not drawn) [Sotalol]
EAD incidence compared to the two lots of iCell-Cardiomyocytes^2 (3 and 10 µM) ([2]; iCell Cardiomyocytes, 10 µM): much higher

COCCOC(=O)C1=C(C)NC(C)=C(C(=O)OC(C)C)C1c1cccc([N+](=O)[O-])c1 (stereo not drawn) [Nimodipine]
share of studies identified within the low and high hazard zones ([1]; 300 nM (15-fold fCmax), n = 124 studies): 95%

COc1cc2c(cc1OC)CC(=O)N(CCCN(C)C[C@H]1Cc3cc(OC)c(OC)cc31)CC2 [Ivabradine]
hazard score [1, 5]: low

CN(CCOc1ccc(NS(C)(=O)=O)cc1)CCc1ccc(NS(C)(=O)=O)cc1 [Dofetilide]
incidence of EADs ([2]; 3 nM, iCell Cardiomyocytes): 65% | prolongation of CTD90 ([2]; 3 nM, lot105091 as printed (n = 20)): 234% | share of studies identified as high (red color) hazard score [1, 6]: 21% | share of studies identified as very high (black color) hazard score [1, 6]: 71% | share of studies identified as yellow hazard score [1, 6]: 8% | incidence of EADs ([1]; first iCell Cardiomyocytes^2 lot (12,012)): 63% | prolongation of CTD90 ([1]; lot 10,591 (n = 28)): 330% | prolongation of CTD90 ([1]; lot 12,012 (n = 144)): 305% | incidence of EADs ([1]; second iCell Cardiomyocytes^2 lot): 71%

Nc1ncnc2c1ncn2[C@@H]1O[C@H](CO)[C@@H](O)[C@H]1O [adenosine]
hazard score [1, 5]: low

C[N+](C)(C)CCOC(N)=O [carbachol]
hazard score [1, 5]: low

Cc1cccc(C)c1OCC(C)N (stereo not drawn) [Mexiletine]
cessation of beating ([1]; 100 µM = 67x fCmax): some cessation of beating | hazard score ([1]; 100 µM = 67x fCmax): Red
